Where a chain is given by its changes, count along the chain named. Entries after “also recorded” stand apart in the source; their conditions may differ.
Legend:
platelets [1] = conditions: cited from earlier work
platelets [2] = conditions: cited from earlier work; remark: listed apart in the source
PAR4 [3] = target: T1, PAR4 (Homo sapiens, UniProt Q96RI0); conditions: cited from earlier work
T1 construct: host or cells: platelets (cited work)
T1 sequence (Q96RI0 18-385): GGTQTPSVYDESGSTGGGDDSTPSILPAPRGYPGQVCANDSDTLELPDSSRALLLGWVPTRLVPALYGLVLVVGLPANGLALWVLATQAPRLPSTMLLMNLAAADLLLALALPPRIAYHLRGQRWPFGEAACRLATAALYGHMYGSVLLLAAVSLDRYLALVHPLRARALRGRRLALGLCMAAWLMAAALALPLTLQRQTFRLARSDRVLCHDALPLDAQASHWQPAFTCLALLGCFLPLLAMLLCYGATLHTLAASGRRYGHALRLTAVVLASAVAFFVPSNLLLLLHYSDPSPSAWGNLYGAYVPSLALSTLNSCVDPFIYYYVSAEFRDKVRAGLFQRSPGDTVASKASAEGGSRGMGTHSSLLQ

PAR4-Ala120 = target: T2, PAR4-Ala120 (Homo sapiens, UniProt Q96RI0); assay: PAR4-AP-induced platelet aggregation, platelets of PAR4-Ala120 homozygotes; assay type: cell-based; conditions: 0.5 μM YD-3, 100 μM PAR4-AP, FIG. 5C
T2 construct: endogenous in cells; host or cells: washed platelets of human donors homozygous for rs773902 G (Ala120)
T2 sequence (Q96RI0 18-385): T1 sequence (Q96RI0 18-385)
Description: (§1) FIGS. 5A-5C show PAR4 variants are differentially susceptible to pharmacological inhibition. Platelets from donors genotyped for rs773902 were washed, incubated with the indicated concentrations of vorapaxar (VPX) (FIGS. 5A, 5B) or YD-3 (FIG. 5C) and then stimulated with (FIG. 5A) 5 μM PAR1-AP or (FIGS. 5B, 5C) 100 μM PAR4-AP. Aggregation was measured using light transmission aggregometry. n=3 each genotype. Horizontal lines indicate mean. (P=0.02).
(§2) Platelets were pre-incubated with the indicated concentrations of vorapaxar^26 (Axon Medchem, Reston, Va., USA) or YD-3 [1-benzyl-3-(ethoxycarbonylphenyl)-indazole]^7 (a gift from Dr. Craig Lindsley at Vanderbilt University) as previously described.^27 Aggregation was then quantified after stimulation with 5 μM PAR1-AP or 100 μM PAR4-AP.
(§3) Multiple linear regression analysis was performed including the PAR4 protein level and the risk SNPs as explanatory variables and PAR4 reactivity as the dependent variable. To determine fraction of variance of PAR4 reactivity explained by PAR4 protein levels and F2RL3 genotype, PAR4 protein level was brought into the model first followed by rs773902 genotype. To test for an interaction between rs773902 and YD-3, a linear regression was performed, using aggregation as the dependent variable and PAR4-AP concentration, YD3 concentration, and rs773902 genotype as […]. […]

smooth muscle cell = conditions: cited from earlier work
[4] = oral, rat carotid balloon injury; cited from earlier work
PAR4 [5] = assay: PAR4-AP-induced platelet aggregation, light transmission aggregometry, donors genotyped for rs773902; assay type: cell-based, human; conditions: 100 μM PAR4-AP
Description: as §1, with “rs773902” left out, “(P=0.02). […] Craig Lindsley at Vanderbilt University) as previously described.^27 Aggregation was then quantified after stimulation with 5 μM PAR1-AP or 100 μM PAR4-AP.” for “(P=0.02).”

PAR4-Thr120 = target: T3, PAR4-Thr120 (Homo sapiens, UniProt Q96RI0, A120T); assay: PAR4-AP-induced platelet aggregation, platelets of PAR4-Thr120 homozygotes; assay type: cell-based; conditions: homozygous PAR4-Thr120, up to 1 μM YD-3, 100 μM PAR4-AP, FIG. 5C
T3 construct: endogenous in cells; host or cells: washed platelets of human donors homozygous for rs773902 A (Thr120)
T3 sequence (Q96RI0 18-385 A120T): T1 sequence (Q96RI0 18-385) with A103T
Description: as §1, §2, §3

PAR1 = target: T4, PAR1 (Homo sapiens, UniProt P25116); assay: PAR1-AP-induced platelet aggregation, light transmission aggregometry; assay type: cell-based; conditions: washed platelets, 5 μM PAR1-AP, FIG. 5A
T4 construct: endogenous in cells; host or cells: washed platelets of healthy human donors (cohort 2)
T4 sequence (P25116 22-425): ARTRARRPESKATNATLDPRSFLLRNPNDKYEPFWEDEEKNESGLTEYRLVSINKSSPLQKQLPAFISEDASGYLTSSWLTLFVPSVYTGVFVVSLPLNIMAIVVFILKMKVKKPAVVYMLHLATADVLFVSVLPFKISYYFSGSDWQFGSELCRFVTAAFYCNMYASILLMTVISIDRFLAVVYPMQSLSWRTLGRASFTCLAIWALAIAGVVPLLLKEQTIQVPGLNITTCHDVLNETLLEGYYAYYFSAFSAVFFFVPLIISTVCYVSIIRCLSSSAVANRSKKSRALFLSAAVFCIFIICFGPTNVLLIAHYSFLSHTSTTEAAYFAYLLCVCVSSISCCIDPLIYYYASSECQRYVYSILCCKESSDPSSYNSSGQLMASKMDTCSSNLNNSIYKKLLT
Description: Platelets from donors genotyped for […] were washed, incubated with the indicated concentrations of vorapaxar (VPX) (FIGS. 5A, 5B) or YD-3 (FIG. 5C) and then stimulated with (FIG. 5A) 5 μM PAR1-AP or (FIGS. 5B, 5C) 100 μM PAR4-AP. Aggregation was measured using light transmission aggregometry. n=3 each genotype. Horizontal lines indicate mean. […] Craig Lindsley at Vanderbilt University) as previously described.^27 Aggregation was then quantified after stimulation with 5 μM PAR1-AP or 100 μM PAR4-AP.

inhibition of platelet aggregation through PAR1 (PAR1) | Structure (SMILES) | block of neutrophil-induced platelet aggregation (platelets [1]) | block of thrombin-induced platelet recruitment (platelets [2]) | block of PAR4-induced platelet aggregation (PAR4 [3]) | inhibition of PAR4-induced platelet aggregation (PAR4-Ala120) | block of thrombin-induced smooth muscle cell proliferation (smooth muscle cell) | intimal thickening [4] | inhibition of PAR4-induced platelet aggregation (PAR4 [5]; rs773902 heterozygotes, FIG. 5C) | inhibition of PAR4-induced platelet aggregation (PAR4-Thr120) | effect on PAR4-induced platelet aggregation (PAR4 [5]; washed platelets, regardless of rs773902 genotype, FIG. 5B)
 | CCOC(=O)c1ccc(-c2nn(Cc3ccccc3)c3ccccc23)cc1 [YD-3, ethyl 4-(1-benzyl-1H-indazol-3-yl)benzoate] | blocks | blocks | specifically blocks; also recorded: blocking | inhibited | blocks | attenuates | intermediate response | resistant | 
efficiently inhibited | CCOC(=O)N[C@@H]1CC[C@@H]2[C@@H](C1)C[C@H]1C(=O)O[C@H](C)[C@H]1[C@H]2/C=C/c1ccc(-c2cccc(F)c2)cn1 [vorapaxar] |  |  |  |  |  |  |  |  | no effect
